Data: EPA's ToxValDB 9.5
“And” between values parts separate entries of the source, which are not always exact repeats. Equal values may be shown once.

Assays:
Rattus norvegicus [1] = details: for LC50 / LD50: acute
Oryctolagus sp. = details: for LD50: acute; for LOAEL: Dutch-belted
Rattus norvegicus [2] = system: Rattus norvegicus
Rattus norvegicus [3] = details: subchronic, oral; for NOEL: gavage, M, Sprague-Dawley
Mus musculus = details: chronic; duration: 81 weeks; oral; M/F; B6C3F1; respiratory
Rattus norvegicus [4] = details: uterotrophic; duration: 3 days; injection; subcutaneous; Active
[5] = developmental, duration: 10 days, oral, gavage, Sprague-Dawley
[6] = subchronic, duration: 30 days, oral, diet, Sprague-Dawley
[7] = reproduction developmental, oral, gavage, Sprague-Dawley, generation: F1
[8] = chronic, duration: 6 months, inhalation, Sprague-Dawley
[9] = short-term, duration: 14 days, oral, gavage, F, Fischer 344
[10] = short-term, duration: 14 days, oral, gavage, M, Fischer 344
[11] = subchronic, duration: 13 weeks, inhalation, F, Fischer 344
[12] = subchronic, duration: 13 weeks, inhalation, Fischer 344
[13] = subchronic, duration: 13 weeks, oral, gavage, F, Fischer 344
[14] = subchronic, duration: 13 weeks, oral, gavage, Fischer 344

CN1C(=O)c2ccc(Oc3ccc(C(C)(C)c4ccc(Oc5ccc6c(c5)C(=O)N(C)C6=O)cc4)cc3)cc2C1=O
NOAEL (Rattus norvegicus [1]; [5]): > 1000 mg/kg-day | NOAEL (Rattus norvegicus [1]; reproduction developmental, duration: 4 weeks, oral, gavage, Sprague-Dawley, generation: F0): > 1000 mg/kg-day | NOAEL (Rattus norvegicus [1]; reproduction developmental, duration: 4 weeks, oral, gavage, Sprague-Dawley, generation: F1): > 1000 mg/kg-day | NOAEL (Rattus norvegicus [1]; reproduction developmental, duration: 10 days, oral, gavage, Crl:CD(SD) BR): > 1000 mg/kg-day | LOAEL (% diet) (Rattus norvegicus [1]; [6]): > 4 | NOAEL (Rattus norvegicus [1]; [6]): ≥ 2750 mg/kg-day and ≤ 3160 mg/kg-day | NOAEL (% diet) (Rattus norvegicus [1]; [6]): 4 | NOAEC (Oryctolagus sp.; developmental, duration: 12 days, oral, gavage, New Zealand): > 1000 mg/kg-day | NOAEL (Oryctolagus sp.; reproduction developmental, duration: 12 days, oral, gavage, F, New Zealand): > 1000 mg/kg-day | NOAEC (Oryctolagus sp.; reproduction developmental, duration: 13 days, oral, gavage, F, New Zealand): > 1000 mg/kg-day | NOAEC (Oryctolagus sp.; reproduction developmental, duration: 13 days, oral, gavage, New Zealand): > 1000 mg/kg-day

CCCBr [1-Bromopropane]
NOAEL (Rattus norvegicus [2]; short-term, duration: 3 weeks, inhalation, whole body, M, F-344, neurological): 50.3 mg/m3

Cc1cccc2ccccc12 [1-Methylnaphthalene]
NOEL (Rattus norvegicus [3]; Absolute Organ Weight: Liver increase + Relative Organ Weight: Liver increase): 50 mg/kg-day | LOAEL (Mus musculus): 71.6 mg/kg-day

CCCCC(CC)CO[N+](=O)[O-] (stereo not drawn) [2-Ethylhexyl nitrate]
NOAEL (Rattus norvegicus [1]; reproduction developmental, oral, gavage, Sprague-Dawley, generation: F0): 20 mg/kg-day | NOAEL (Rattus norvegicus [1]; [7]): 100 mg/kg-day | NOAEL (Rattus norvegicus [1]; short-term, duration: 14 days, inhalation, Sprague-Dawley): 301 mg/m3 | NOAEL (Rattus norvegicus [1]; short-term, duration: 28 days, oral, gavage, Sprague-Dawley): 20 mg/kg-day | NOAEL (Oryctolagus sp.; short-term, duration: 15 days, dermal, semiocclusive, Albino): > 500 mg/kg-day

Cc1ccccn1 [2-Methylpyridine]
LC50 (Rattus norvegicus [1]; inhalation): ≥ 7620 mg/m3 and ≤ 15200 mg/m3 | LC50 (Rattus norvegicus [1]; inhalation, Sprague-Dawley): < 13200 mg/m3 | LD50 (Rattus norvegicus [1]; oral, gavage, Sprague-Dawley): 810 mg/kg and > 950 mg/kg | LOAEL (Rattus norvegicus [1]; [8]): > 381 mg/m3 | NOAEL (Rattus norvegicus [1]; [8]): ≥ 381 mg/m3 | LD50 (Oryctolagus sp.; dermal): ≥ 252 mg/kg and ≤ 500 mg/kg | LD50 (Oryctolagus sp.; dermal, occlusive, New Zealand): ≥ 200 mg/kg and ≤ 316 mg/kg

CC(C)(c1ccc(Oc2ccc3c(c2)C(=O)OC3=O)cc1)c1ccc(Oc2ccc3c(c2)C(=O)OC3=O)cc1 [4,4'-(4,4'-Isopropylidenediphenoxy)bisphthalic dianhydride]
LD50 (Rattus norvegicus [1]; oral, gavage, Spartan): > 5000 mg/kg | LD50 (Rattus norvegicus [1]; oral, gavage, Sprague-Dawley): > 5000 mg/kg | NOAEL (Rattus norvegicus [1]; [5]): > 1000 mg/kg-day | NOAEL (Rattus norvegicus [1]; reproduction developmental, oral, gavage, Sprague-Dawley): > 1000 mg/kg-day | NOAEL (Rattus norvegicus [1]; [7]): > 1000 mg/kg-day | LOAEL (% diet) (Rattus norvegicus [1]; [6]): > 4 | NOAEL (% diet) (Rattus norvegicus [1]; [6]): 4 | LD50 (Oryctolagus sp.; dermal, New Zealand): > 2000 mg/kg | LD50 (Oryctolagus sp.; dermal, occlusive, New Zealand): > 2000 mg/kg

Nc1ccc(Cc2ccc(N)cc2)cc1 [4,4'-Diaminobiphenyl methane]
NOAEL (Rattus norvegicus [3]; duration: 90 days, drinking water, M/F, Tif / RAlf, Deaths + Body Weight Changes: Weight gain + Food Consumption: decrease + Water Consumption: decrease + Hematology: RBC decrease, HGB …): < 12.2 mg/kg-day | LOAEL (Rattus norvegicus [2]; acute, duration: 1 days, oral, gavage, M, Sprague-Dawley, hepatic): 25 mg/kg-day | NOAEL (Rattus norvegicus [2]; subchronic, duration: 12 weeks, oral, gavage, M/F, Wistar, hepatic): 8.3 mg/kg-day

CCc1ccc(C)cc1 [4-Ethyltoluene]
LC50 (Rattus norvegicus [1]; inhalation, Sprague-Dawley): > 19200 mg/m3 | LD50 (Rattus norvegicus [1]; oral, gavage, Sprague-Dawley): 4850 mg/kg | NOAEL (Rattus norvegicus [1]; developmental, duration: 20 days, oral, gavage): > 200 mg/kg-day | LOAEL (Rattus norvegicus [1]; [9]): 400 mg/kg-day | NOAEL (Rattus norvegicus [1]; [9]): 200 mg/kg-day | LOAEL (Rattus norvegicus [1]; [10]): 400 mg/kg-day | NOAEL (Rattus norvegicus [1]; [10]): 200 mg/kg-day | LOAEL (Rattus norvegicus [1]; [11]): 4810 mg/m3 | NOAEL (Rattus norvegicus [1]; [11]): 1500 mg/m3 | LOAEL (Rattus norvegicus [1]; [12]): 4810 mg/m3 | NOAEL (Rattus norvegicus [1]; [12]): 1500 mg/m3 | LOAEL (Rattus norvegicus [1]; [13]): 300 mg/kg-day | NOAEL (Rattus norvegicus [1]; [13]): 100 mg/kg-day | LOAEL (Rattus norvegicus [1]; [14]): 300 mg/kg-day | NOAEL (Rattus norvegicus [1]; [14]): 100 mg/kg-day | LD50 (Oryctolagus sp.; dermal, occlusive, New Zealand): > 5000 mg/kg | LOAEL (Oryctolagus sp.; developmental, oral, gavage): > 200 mg/kg-day | LOAEL (Oryctolagus sp.; reproduction developmental, oral, gavage, F): 250 mg/kg-day

Oc1ccc(-c2ccccc2)cc1 [4-Phenylphenol]
NOEL (Rattus norvegicus [3]; Body Weight Changes: Reduced gain + Food Consumption: decrease + Hematology: WBC increase, NeutrophilSegment(%) decrease, Lymphocyte(%) …): 30 mg/kg-day | LEL (Rattus norvegicus [4]): 10 mg/kg-day
